Measurements reported in EP0450573A2, “Antibodies for the treatment and diagnosis of Pseudomonas aeruginosa infections” (priority 1990, dated 1991).

Tested on: P. aeruginosa strain FI-6(A366)
Assay: Opsonophagocytic assay (bactericidal activity with complement and polymorphonuclear cells)
Type: cell-based
Settings: cefepime alone, 0 µg/ml 6D7 data point of Figure 1
Protocol: Overnight cultures of P. aeruginosa FI-6 in adjusted Miller-Hinton broth containing 50 mg/l calcium chloride and 25 mg/l magnesium chloride were innoculated into media lacking or containing 1 µg/ml amikacin; this concentration of antibiotic allows almost normal growth of the bacterial culture. The bacterial cultures were incubated until mid-logarithmic phase of growth was attained, and then the bacteria were harvested by centrifugation, and resuspended to 5 x 10⁴ cells/ml in gelatin veronal buffer. […] Opsonic activity of antibodies directed against amikacin-treated bacteria was determined in the presence of 1 µg/ml amikacin. […] The amount of bacterial killing, was determined by plating 25 µl from each tube onto solid agar, growing the plated bacteria overnight, and counting the number of colonies on the plate. […]
The opsonophagocytic activity of varying amounts of monoclonal antibody 6D7 towards P. aeruginosa strain FI-6 cells was determined in the presence or absence of subinhibitory concentrations of the antibiotic, cefepime. […]

Structure (SMILES): CO/N=C(\C(=O)N[C@@H]1C(=O)N2C(C(=O)[O-])=C(C[N+]3(C)CCCC3)CS[C@H]12)c1csc(N)n1 [cefepime]
- survival: 100%
